The record followed here is publication PMC6882468 (Journal of Enzyme Inhibition and Medicinal Chemistry, 2019).

For series [1], the system named is ERK phosphorylation in RAW264.7 cells. Kind of series: Western blot of LPS-induced ERK phosphorylation. The format is cell-based, Murine. Conditions: RAW264.7, 5, 10, 20 μM, LPS 200 ng/mL. The method, then:
(§1) The cell in 96-well plates were treated as described above and then stimulated with LPS (200 ng/mL) for 24 h. The cells were harvested and lysed in an extraction lysis buffer (Beyotime Biotechnology, Shanghai, China) containing protease inhibitors. The protein concentration was determined using a BCA protein assay kit (Thermo Scientific, 23227). The whole cell lysates were separated by 10% sodium dodecyl sulphate-polyacrylamide gel electrophoresis and transferred to a nitrocellulose membrane. Each membrane was incubated with Tris-buffered saline (pH 7.6, containing 0.05% Tween-20 and 5% non-fat milk). The nitrocellulose membrane was incubated with the primary antibody against p-JNK1/2, JNK1/2, p-p38, p38, p-ERK1/2, ERK1/2, IκBa, NF-κB p65, COX-2, iNOS or β-Actin (Abcam, Cambridge, UK). Immunoreactive bands were detected by incubating with horseradish peroxidase-conjugated secondary antibodies, and visualised using enhanced chemiluminescence reagents (Bio-Rad, Hercules, CA).
(§2) Figure 7. Compound 6n inhibited LPS-induced MAPK-signalling activation in RAW264.7 cells. RAW264.7 cells were co-incubated with 6n (5, 10, 20 μM) and LPS (200 ng/mL) for 30 min. The levels of p38, JNK, ERK1/2 and their phosphorylated forms were analysed using western blot.
On the technique in general: A western blot detects proteins with antibodies after separation by electrophoresis.

The test system of series [2] is p38 phosphorylation in RAW264.7 cells. Kind of series: Western blot of LPS-induced p38 phosphorylation. The following applies: RAW264.7, 5, 10, 20 μM, LPS 200 ng/mL. The format is cell-based, Murine. As for the experimental part: as §1, §2
The test system of series [3] is NO production in RAW 264.7 macrophages. Nature of the series: Measurement of LPS-induced NO production (Griess). The format is cell-based, Murine. The following applies: RAW264.7, 2 h pre-treatment (0–20 µM), LPS 200 ng/mL 24 h. As for the experimental part:
Murine RAW 264.7 macrophages were obtained from the American Type Culture Collection (ATCC, USA). The cells were incubated in DMEM media supplemented with 10% FBS, 100 U/mL penicillin and […] streptomycin at 37 °C with 5% CO2. The RAW 264.7 macrophages were inoculated at 96-well plates and were pre-treated with vehicle or 6n (0–20 µM dose range) for 2 h and then stimulated with LPS (200 ng/mL) for 24 h. NO concentration in the medium was determined using Griess reagent kit (Beyotime, China) at 540 nm with a microplate reader (MQX200, Bio-Tek, USA) and calculated the inhibition rate of NO.
For orientation: Griess reagent forms a coloured azo dye with nitrite.

For series [4], the system named is DNFB-induced mouse model of allergic contact dermatitis. Kind of series: DNFB-induced mouse model of allergic contact dermatitis (ear swelling). In kind it is in vivo, Male ICR mice. The method, then: Male ICR mice (20 ± 2 g) were obtained from the Experimental Animal Centre of Anhui Medical University (Hefei, China). The mice reared in a pathogen-free setting (23 ± 2 °C, 55 ± 5% humidity) with free access to water and pelleted food throughout the experimental cycle. All experimental procedures performed in accordance with guide for the Care and Use of Laboratory Animals (National Research Council, 1996) and were approved by the Experimental Animal Ethics Committee of Anhui University of Chinese Medicine (Hefei, China). After 7 days acclimatisation, the mice were randomly divided into control group, ACD model group, dexamethasone positive control group and 20 compound groups, six in each group. The control group and the model group were given the same dose of the vehicle, the positive control group was given dexamethasone 0.5 mg/kg, and the test compound groups were given compound 5 mg/kg, all of which were given by intragastric administration and were administered once a day for 6 days. Except for the control group, the 50 µL of 1% DNFB (in acetone/olive oil 4:1) was administered to the stripped epidermis, and repeated the next day. After 6 days of drug treatment, 10 µL of 1% DNFB acetone olive oil solution was applied on both sides of the right ear to stimulate inflammation, and equivalent acetone olive oil solution was applied on the left ear for comparison. […] Calculation was carried out according to the following equations. Swelling degree (mg) = MR – ML Inhibitory rate of ear swelling (%)=((MR – ML) model – (MR – ML) treated)/(MR – ML) model ×100% MR=Average weight of the right ear slices;ML= Average weight of the left ear slices […] Dexamethasone (DEX) at a p.o. dose of 0.5 mg/kg was employed as the positive control. After the mice were sacrificed, the swelling degree and inhibition rate were calculated by weighing the same part of both ears.

Series [5] concerns RAW 264.7 cells. Nature of the series: Cell viability assay (MTT). In kind it is cell-based, Murine. The following applies: RAW264.7 cells, concentrations ranging from 5 to 50 µM, 24 h. The method, then:
Murine RAW 264.7 macrophages were obtained from the American Type Culture Collection (ATCC, USA). The cells were incubated in DMEM media supplemented with 10% FBS, 100 U/mL penicillin and […] streptomycin at 37 °C with 5% CO2. Cell viability was assessed using the MTT assay. RAW 264.7 cells were inoculated in 96-well plate at a density of 1.0 × 10^5 cells per well. After incubated for 24 h, the cells were treated with various concentrations of the compound. After an additional 24-h incubation, 20 µL of 0.5 mg/mL MTT reagent was added to wells and incubated for another 4 h. After 4 h, cell culture media was removed and DMOS was added into each well, and then, the optical density was measured at 570 nm. The IC50 values were determined by GraphPad Prism 6.

The test system of series [6] is NF-κB activation in RAW264.7 cells. Kind of series: Western blot of LPS-induced NF-κB activation. In kind it is cell-based, Murine. Conditions: RAW264.7, 2-h pre-treatment before LPS stimulation. As for the experimental part:
as §1
Figure 5. Compound 6n inhibited LPS-induced NF-κB activation in RAW264.7 cells. […] The levels of NF-κB p65, IκB, and their phosphorylated forms were analysed using western blot.

Series [7] deals with iNOS expression in RAW264.7 cells. Kind of series: Western blot of LPS-induced iNOS expression. In kind it is cell-based, Murine. Conditions: RAW264.7, LPS 200 ng/mL 24 h. The method, then: as §1
(§3) Figure 6. […] Cell viability was evaluated using the MTT assay. NO production was measured using nitrite and nitrate assay. iNOS and COX-2 expression were detected by Western blot. (A) Cell viability assay; (B) Quantitative analysis of NO productions; (C) Quantitative analysis of iNOS expressions, (D) Quantitative analysis of COX-2 expressions. β-actin was used as loading control.

The test system of series [8] is COX-2 expression in RAW264.7 cells. Kind of series: Western blot of LPS-induced COX-2 expression. In kind it is cell-based, Murine. The following applies: RAW264.7, LPS 200 ng/mL 24 h. The method, then: as §1, §3

For `COc1ccccc1CN1CCN(C(=O)c2ccccc2C(C)=O)CC1` [Compound 6n, 1–(2-(4–(2-Methoxybenzyl)piperazine-1-carbonyl)phenyl)ethan-1-one], the “phosphorylation of ERK” value in series [1] is listed as “no obvious effect”. Further, the p38 phosphorylation result in series [2] is reported as “significantly lower”. In series [3], the “LPS-induced NO production” value was “reduced LPS-induced NO production in a dose-dependent manner”. Further, the “Swelling degree” value in series [4] (mice, 5 mg/kg intragastric once a day for 6 days, ear slices weighed 24 h after DNFB challenge, Mean ± SD, n = 6) is on record as 8.8 ± 3.2 mg. Also, in series [4] (mice, 5 mg/kg intragastric once a day for 6 days, vs model group), the “Inhibition (%) of ear swelling” value came out at 46.3%. Further, in series [4] (p.o. 5 mg/kg, p < 0.01), the “in vivo inhibitory activity, in words” value is listed as “significant inhibitory activity”. For the same compound, in series [5], the cytotoxicity result is reported as “no significant toxicity”. In addition, in series [6], the “LPS-induced IκB phosphorylation” value is reported as “markedly decreased”, the “accumulation of NF-κB p65 subunit in the nucleus” value is on record as “lowered” and the “cytosolic IκB” value is on record as “increased”. Further, the “LPS-induced expression of iNOS” value in series [7] is on record as “dose-dependent decrease”. Also, the “LPS-induced expression of COX-2” value in series [8] is listed as “dose-dependent decrease”.
